Experimental data taken from the supplement of paper PMC13380429.

Assays:
Conditions in all cases: 72 h
[1] = system: U2OS; assay: cell viability relative to DMSO; higher = less toxic
[2] = system: Caco-2; assay: as above
[3] = system: HepG2; assay: as above
[4] = system: Calu-3; assay: as above
[5] = system: Vero E6; assay: as above
[6] = system: U2OS; assay: drug sensitivity score (DSS) for viability; higher = more toxic; extreme values may be limits of the assay
[7] = system: Caco-2; assay: as above
[8] = system: HepG2; assay: as above
[9] = system: Calu-3; assay: as above
[10] = system: Vero E6; assay: as above
[11] = system: U2OS; assay: relative viability EC50 (midpoint between 100% and the lowest measured viability); higher = less toxic
[12] = system: Caco-2; assay: as above
[13] = system: HepG2; assay: as above
[14] = system: Calu-3; assay: as above
[15] = system: Vero E6; assay: as above

Row | SMILES | cell viability ([1]; 1 nM) | cell viability ([1]; 10 nM) | cell viability ([1]; 100 nM) | cell viability ([1]; 1000 nM) | cell viability ([1]; 10000 nM) | cell viability ([2]; 1 nM) | cell viability ([2]; 10 nM) | cell viability ([2]; 100 nM) | cell viability ([2]; 1000 nM) | cell viability ([2]; 10000 nM) | cell viability ([3]; 1 nM) | cell viability ([3]; 10 nM) | cell viability ([3]; 100 nM) | cell viability ([3]; 1000 nM) | cell viability ([3]; 10000 nM) | cell viability ([4]; 1 nM) | cell viability ([4]; 10 nM) | cell viability ([4]; 100 nM) | cell viability ([4]; 1000 nM) | cell viability ([4]; 10000 nM) | cell viability ([5]; 1 nM) | cell viability ([5]; 10 nM) | cell viability ([5]; 100 nM) | cell viability ([5]; 1000 nM) | cell viability ([5]; 10000 nM) | drug sensitivity score [6] | drug sensitivity score [7] | drug sensitivity score [8] | drug sensitivity score [9] | drug sensitivity score [10] | relative viability EC50 [11] | relative viability EC50 [12] | relative viability EC50 [13] | relative viability EC50 [14] | relative viability EC50 [15]
1 | CO/N=C(\C(=O)N[C@@H]1C(=O)N2C(C(=O)[O-])=C(C[n+]3ccn4ncccc43)CS[C@H]12)c1nsc(N)n1 [cefozopran] | 97% | 97.7% | 102% | 107% | 104% | 93.7% | 97.9% | 96.5% | 96.7% | 99% | 89.7% | 90% | 88.8% | 104% | 102% | 102% | 104% | 93.6% | 104% | 118% | 92.7% | 99.9% | 94% | 98.7% | 109% | 0 | 0 | 0 | 0 | 0 | > 10 µM | > 10 µM | > 10 µM | > 10 µM | > 10 µM
2 | C[C@@H]1CN(Cc2ncccn2)C[C@H]1c1nc2c(cnn2C2CCOCC2)c(=O)[nH]1 | 98.2% | 102% | 102% | 103% | 99.9% | 94.4% | 92.4% | 96% | 94.7% | 107% | 99.2% | 94% | 100% | 96.5% | 107% | 98.5% | 100% | 105% | 111% | 93.7% | 93.6% | 97.7% | 93.7% | 96% | 103% | 0 | 0 | 0 | 0 | 0 | > 10 µM | > 10 µM | > 10 µM | > 10 µM | > 10 µM
3 | COc1cccc(-c2ccc([C@@H](Oc3cc(-c4ccc(C[C@H](N)C(=O)O)cc4)nc(N)n3)C(F)(F)F)cc2)c1 [LX1031] | 96.4% | 93.4% | 95.2% | 102% | 99.9% | 91.5% | 96.7% | 94.1% | 92.9% | 101% | 111% | 100% | 111% | 99.3% | 102% | 99.3% | 98.2% | 102% | 97.3% | 103% | 105% | 89.6% | 101% | 98.8% | 106% | 0 | 0 | 0 | 0 | 0 | > 10 µM | > 10 µM | > 10 µM | > 10 µM | > 10 µM
4 | C[C@]12CC[C@H]3[C@@H](CCC4=CC(=O)CC[C@@]43C)[C@@H]1CC[C@@H]2C(=O)CO [desoxycortone] | 103% | 99.2% | 97.1% | 97.6% | 95.4% | 100% | 101% | 102% | 97% | 87.4% | 101% | 95.8% | 97% | 87.1% | 104% | 98.5% | 95.1% | 91.5% | 105% | 95.8% | 101% | 99.2% | 93.6% | 95.8% | 101% | 0 | 0.2 | 0 | 0 | 0 | > 10 µM | > 10 µM | > 10 µM | > 10 µM | > 10 µM
5 | CCNC(=O)c1n[nH]c(-c2cc(Cl)c(O)cc2O)c1-c1ccc(OC)cc1 | 93.7% | 99.1% | 99.5% | 78.7% | 4.7% | 95.3% | 101% | 94.4% | 83.8% | 32.7% | 104% | 94.2% | 105% | 31.3% | 2% | 99.8% | 88.5% | 96.1% | 85.8% | 39.2% | 100% | 95.7% | 100% | 78.5% | 37.8% | 8.6 | 6.2 | 13.3 | 5.6 | 6.5 | 1.64 µM | 1.58 µM | 0.714 µM | 1.61 µM | 1.29 µM
6 | NCCCC[C@H](N)C(=O)O [L-lysine] | 103% | 96.7% | 101% | 97.5% | 99.5% | 110% | 102% | 96.8% | 86% | 106% | 111% | 102% | 103% | 93.2% | 114% | 92.7% | 102% | 106% | 97.7% | 105% | 108% | 106% | 99.6% | 98.8% | 104% | 0 | 0 | 0 | 0 | 0 | > 10 µM | > 10 µM | > 10 µM | > 10 µM | > 10 µM
7 | Cc1cccc(Nc2ccccc2C(=O)O)c1C [mefenamic-acid] | 106% | 97% | 101% | 97.1% | 101% | 97.5% | 101% | 97.1% | 96.4% | 99.3% | 101% | 94.4% | 100% | 97.4% | 91.4% | 89.9% | 96.4% | 97.7% | 98.9% | 97.6% | 106% | 108% | 100% | 104% | 92% | 0 | 0 | 0 | 0 | 0 | > 10 µM | > 10 µM | > 10 µM | > 10 µM | > 10 µM
